In PMC9064011 (RSC Advances, 2019):

Columns and labels:
L-O2 cells = assay: MTT assay for cell growth inhibition, L-O2; type: cell-based; details: Homo sapiens, L02, 48 h, read-out: IC50 L-O2
MCF-7 cells = assay: MTT assay for tumor cell growth inhibition, MCF-7; type: cell-based; details: Homo sapiens, MCF7, 48 h, read-out: IC50 MCF-7
HepG2 cells = assay: MTT assay for tumor cell growth inhibition, HepG2; type: cell-based; details: Homo sapiens, HepG2, 48 h, read-out: IC50 HepG2
HeLa cells = assay: MTT cell growth inhibition; type: cell-based; details: Homo sapiens
[1] = tested on: Hypoxia Inducible Factor-1 (HIF-1) pathway; assay: cells; details: Homo sapiens, HeLa, 12 h, read-out: HRE IC50
[2] = tested on: Hypoxia Inducible Factor-1 (HIF-1) pathway; details: dual luciferase reporter system
H322 cell = details: previous work in our laboratory, ref unpublished; cited from earlier work
[3] = tested on: hypoxia inducible factor-1 (HIF-1) transcription; details: dual luciferase reporter assay, previous work in our laboratory, ref unpublished; cited from earlier work

Row | IC50 (MCF-7 cells) | IC50 (HepG2 cells) | GI50 (HeLa cells) | IC50 [1] | Structure (SMILES) | IC50 (L-O2 cells) | HIF inhibitory activity (in words) [2] | cytotoxicity against H322 cell (H322 cell) | inhibitory activity on HIF-1 transcription [3]
1 | > 100 µM | > 100 µM | > 100 µM | 5.41 ± 1.1 µM | COC(=O)c1c(C#Cc2ccc(OC)cc2)cccc1-c1ccc(OC)cc1 [Compound 1a, Methyl 4′-methoxy-3-((4-methoxyphenyl)ethynyl)-[1,1′-biphenyl]-2-carboxylate] | > 100 µM | – | – | –
2 | > 100 µM | > 100 µM | > 100 µM | 20.7 ± 2.5 µM | COc1ccc(C#Cc2cccc(-c3ccc(OC)cc3)c2C(=O)O)cc1 [Compound 1b, 4′-Methoxy-3-((4-methoxyphenyl)ethynyl)-[1,1′-biphenyl]-2-carboxylic acid] | > 100 µM | – | – | –
3 | 7.18 ± 1.2 µM | – | 3.75 ± 0.2 µM | 2.36 ± 0.4 µM | COc1ccc(C#Cc2cccc(-c3ccc(OC)cc3)c2C(=O)c2ccc(OC)cc2)cc1 [Compound 1c, (4′-Methoxy-3-((4-methoxyphenyl)ethynyl)-[1,1′-biphenyl]-2-yl)(4-methoxyphenyl)methanone] | – | – | – | –
4 | 51.2 ± 0.6 µM | 54.8 ± 1.9 µM | 44.81 ± 0.2 µM | 9.52 ± 0.4 µM | COc1ccc(C(=O)c2c(C#Cc3ccc(O)cc3)cccc2-c2ccc(O)cc2)cc1 [Compound 1d, (4′-Hydroxy-3-((4-hydroxyphenyl)ethynyl)-[1,1′-biphenyl]-2-yl)(4-methoxyphenyl)methanone] | 64 ± 1 µM | – | – | –
5 | 95.57 ± 0.4 µM | 55.5 ± 1.9 µM | 86.31 ± 0.5 µM | 13.7 ± 0.4 µM | O=c1oc(-c2ccc(O)cc2)cc2cccc(-c3ccc(O)cc3)c12 [Compound 1e, 3,8-Bis(4-hydroxyphenyl)-1H-isochromen-1-one] | 92.5 ± 2 µM | – | – | –
6 | > 100 µM | > 100 µM | > 100 µM | 18.3 ± 1.6 µM | COC(=O)c1cc(C#Cc2ccc(OC)cc2)ccc1-c1ccc(OC)cc1 [Compound 2a, Methyl 4′-methoxy-4-((4-methoxyphenyl)ethynyl)-[1,1′-biphenyl]-2-carboxylate] | > 100 µM | – | – | –
7 | > 100 µM | > 100 µM | > 100 µM | 15.6 ± 1.6 µM | COc1ccc(C#Cc2ccc(-c3ccc(OC)cc3)c(C(=O)O)c2)cc1 [Compound 2b, 4′-Methoxy-4-((4-methoxyphenyl)ethynyl)-[1,1′-biphenyl]-2-carboxylic acid] | > 100 µM | – | – | –
8 | > 100 µM | > 100 µM | > 100 µM | 39.9 ± 3.1 µM | COc1ccc(C#Cc2ccc(-c3ccc(OC)cc3)c(C(=O)c3ccc(OC)cc3)c2)cc1 [Compound 2c, (4′-Methoxy-4-((4-methoxyphenyl)ethynyl)-[1,1′-biphenyl]-2-yl)(4-methoxyphenyl)methanone] | > 100 µM | – | – | –
9 | 6.49 ± 0.1 µM | 24.99 ± 0.1 µM | 3.24 ± 0.1 µM | 4.47 ± 0.6 µM | COc1ccc(C(=O)c2cc(C#Cc3ccc(O)cc3)ccc2-c2ccc(O)cc2)cc1 [Compound 2d, (4′-Hydroxy-4-((4-hydroxyphenyl)ethynyl)-[1,1′-biphenyl]-2-yl)(4-methoxyphenyl)methanone] | 7.83 ± 1.2 µM | – | – | –
10 | > 100 µM | > 100 µM | > 100 µM | 20.8 ± 0.8 µM | COc1ccc(C#Cc2ccc(-c3ccc(OC)cc3)c(C(O)(c3ccc(OC)cc3)c3ccc(OC)cc3)c2)cc1 [Compound 2e, (4′-Methoxy-4-((4-methoxyphenyl)ethynyl)-[1,1′-biphenyl]-2-yl)bis(4-methoxyphenyl)methanol] | > 100 µM | – | – | –
11 | > 100 µM | > 100 µM | > 100 µM | 1.89 ± 0.4 µM | CCCCC(O)(c1ccc(OC)cc1)c1cc(C#Cc2ccc(OC)cc2)ccc1-c1ccc(OC)cc1 (stereo not shown) [Compound 2f, 1-(4′-methoxy-4-((4-methoxyphenyl)ethynyl)-[1,1′-biphenyl]-2-yl)-1-(4-methoxyphenyl)pentan-1-ol] | > 100 µM | – | – | –
12 | 13 ± 0.7 µM | 15.1 ± 0.6 µM | 15.48 ± 0.1 µM | 8.1 ± 1.4 µM | COc1ccc(-c2ccc(C#Cc3ccc(O)cc3)cc2C(O)(c2ccc(OC)cc2)c2ccc(OC)cc2)cc1 [Compound 2g, 4-((2-(Hydroxybis(4-methoxyphenyl)methyl)-4′-methoxy-[1,1′-biphenyl]-4-yl)ethynyl)phenol] | 16.4 ± 1.3 µM | – | – | –
13 | 11.9 ± 0.5 µM | 11.8 ± 0.8 µM | 10.8 ± 0.3 µM | 2.52 ± 0.4 µM | COc1ccc(C(O)(c2ccc(OC)cc2)c2cc(C#Cc3ccc(O)cc3)ccc2-c2ccc(O)cc2)cc1 [Compound 2h, 2′-(hydroxybis(4-methoxyphenyl)methyl)-4′-((4-hydroxyphenyl)ethynyl)-[1,1′-biphenyl]-4-ol] | 10.6 ± 1.1 µM | – | – | –
14 | 9.23 µM | 8.96 ± 0.4 µM | 7.58 ± 0.1 µM | 5.55 ± 1.3 µM | COc1ccc(C2(c3ccc(OC)cc3)c3cc(O)ccc3-c3ccc(C#Cc4ccc(O)cc4)cc32)cc1 [Compound 2i, 7-((4-Hydroxyphenyl)ethynyl)-9,9-bis(4-methoxy-phenyl)-9H-fluoren-2-ol] | 10.9 ± 1 µM | – | – | –
15 | 12.1 ± 0.1 µM | 11.6 ± 0.6 µM | 4.47 ± 0.5 µM | – | COc1ccc(C(=C2C=CC(=O)C=C2)c2cc(C#Cc3ccc(O)cc3)ccc2-c2ccc(O)cc2)cc1 [Compound 2j, 4-((4′-Hydroxy-4-((4-hydroxyphenyl)ethynyl)-[1,1′-biphenyl]-2-yl)(4-methoxyphenyl)methylene)cyclohexa-2,5-dien-1-one] | 11.1 ± 0.7 µM | little HIF inhibitory activity | – | –
16 | – | – | – | – | Cc1ccc(-c2ccc(O)cc2)c(C(=C2C=CC(=O)C=C2)c2ccccc2)c1C#Cc1ccc(O)cc1 [selaginellin A] | – | – | moderately cytotoxic | displayed inhibitory activity
17 | – | – | – | – | Cc1ccc(-c2ccc(O)cc2)c(C(=C2C=CC(=O)C=C2)c2ccc(O)cc2)c1C#Cc1ccc(O)cc1 [selaginellin B] | – | – | moderately cytotoxic | –
